Laboratory results published in publication PMC12371487, “Phenylalkyl Acetophenones and Anacardic Acids from Knema oblongifolia with Synthetic Analogues as Anti-infectives and Antibacterial Agents” (ACS Bio & Med Chem Au, 2025).
Values after ≈ are worked out from the molar mass of the structure shown. Where two headings read alike, the source gives them in different places.

Experiments:
Assay type in all cases: cell-based
[1] = tested on: Dictyostelium discoideum (Dd) in infection; test: Dd-Mm infection assay: host amoeba growth (fluorescence); settings: infected Dd, fluorescence AUC over 72 h at 25 °C, 6-concentration curve, top 100 μM, 1:3 steps, IC50 interpolated
Procedure: (§1) Plant extracts, fractions, or isolated compounds were stored at −20 °C and wrapped in aluminum foil if necessary. All manipulations with extracts, fractions, or compounds were performed under a sterile hood. Extracts, fractions, and compounds were resuspended throughout in DMSO to best solubilize extracts with diverse constituents. Extracts, fractions, or compounds were added to the assay plate in a 1:100 dilution. Assay solutions of extracts, fractions, and compounds were prepared in 96-well plates, stored at −20 °C, and thawed before the experiment at room temperature or warmer with or without shaking/vortexing to obtain a clear assay solution. Extracts were tested at 25 μg/mL and purified compounds in a dose–response curve of 6 concentrations with 100 μM being the top concentration and a 1:3 dilution step between each testing concentration. Since fractions were not weighed individually, the injection mass was used to calculate an average mass per fraction and thus a nominal mass concentration. Fractions were tested at a nominal concentration of 10 μg/mL.
(§2) As described in Nitschke et al. and Mottet et al., Dd Ax2(ka) expressing mCherry from the act5 chromosomal locus was infected with Mm M strain expressing the lux operon (luxCDABE) , by spinoculation.
(§3) Briefly, the day before the experiment, Mm was cultivated in 7H9 broth (Becton Dickinson, Difco Middlebrook 7H9) supplemented with 10% OADC (Becton Dickinson) and 0.05% tyloxapol (Sigma-Aldrich) and 50 μg/mL kanamycin at 32 °C overnight with continuous shaking. Additionally, the day before the experiment, 10^7 amoebae were plated in HL5-C in a 10 cm Petri dish (Falcon). On the day of the experiment, a volume of the Mm culture corresponding to a multiplicity of infection of 25 with respect to the number of amoebae in the Petri dish was added to the semiconfluent amoebae monolayer. Subsequently, the Petri dishes were centrifuged twice at 500g, as described in Mottet et al. To remove extracellular bacteria, dishes were rinsed with fresh HL5-C, and the infected cell population was resuspended in HL5-C with 5 U/mL penicillin and 5 μg/mL streptomycin (Gibco) to inhibit the extracellular growth of bacteria during the course of the experiment.
(§4) For testing fractions and purified compounds, 20 μL of infected cell suspension was plated into each well of a 384-well plate (Interchim FP-BA8240) to an effective cell number of 1 × 10^4 cells per well. Fractions or compounds including a vehicle control (0.3% DMSO final concentration) and a positive control (rifabutin, 10 μM final concentration) were added using an electronic multipipette (Sartorius). Subsequently, the well plates were sealed with a gas impermeable membrane (H769.1, Carl Roth), briefly centrifuged, and intracellular bacterial growth was monitored using an Agilent BioTek H1 plate reader and an Agilent BioTek BioStack plate stacker by recording luminescence over 72 h at 25 °C with readings taken every hour. Fluorescence was also recorded to monitor amoeba growth.
(§5) For both assays, growth curves were obtained by measuring the luminescence and fluorescence as a proxy for bacterial growth and host growth, respectively, for 72 h with time-points taken every hour. The “normalized residual growth” was computed by calculating the area under the curve (AUC, trapezoid method) and normalizing it to the vehicle control (0.3% DMSO, set at 1) and a baseline curve (set at 0). The baseline curve was calculated by taking the median of the first measurement of all wells in a plate and extrapolating it over the complete time course. The threshold for hit detection was arbitrarily fixed at a cutoff of normalized residual growth ≤0.5. Normalized values were averaged over technical and biological replicates (all experiments on isolated compounds have at least n = 3 and N = 3, whereas the primary extract screening and microfractions testing had values of n = 1 and N = 3). […]

[2] = tested on: Mycobacterium marinum (Mm) in broth; test: Mm growth in broth (antibiotic assay, luminescence); settings: 72 h; for IC50: read-out: IC50 on Mm in broth
Procedure: as §1, with “Extracts, fractions, and compounds were resuspended throughout in DMSO to best solubilize extracts with diverse constituents.” left out
For testing bacteria in broth, the preculture was diluted to a bacterial density of 3.75 × 10^5 bacteria per mL in 7H9 medium. Plating bacteria and compounds or fractions was performed analogously to the infection assay described above. Bacteria growth was monitored with the Agilent BioTek H1 plate reader by recording luminescence at 32 °C.
For both assays, growth curves were obtained by measuring the luminescence and fluorescence as a proxy for bacterial growth and host growth, respectively, for 72 h with time-points taken every hour. The “normalized residual growth” was computed by calculating the area under the curve (AUC, trapezoid method) and normalizing it to the vehicle control (0.3% DMSO, set at 1) and a baseline curve (set at 0). The baseline curve was calculated by taking the median of the first measurement of all wells in a plate and extrapolating it over the complete time course. The threshold for hit detection was arbitrarily fixed at a cutoff of normalized residual growth ≤0.5.
This procedure was also applied to screening extracts with slight modifications. The day before the experiment we preplated 10 μL of HL5-C using a dispenser (Thermo Multidrop), subsequently we preplated 2.2 μL of dissolved extracts from 96-well plates into quadrants 1, 2, and 3 of 384-well plates, whereas quadrant 4 was used for positive and vehicle controls. Preplating of extracts was performed using a liquid handler (Agilent Bravo). In total, 24 extract plates were distributed in triplicate into […] 384-well plates, amounting to 24 assay plates. The prepared plates were sealed and stored at 4 °C overnight. On the day of the experiment, nine 10 cm Petri dishes were infected (as described before) and grouped into three pools. The cell suspension was adjusted to 10^6 cells/mL, and 10 μL was plated into the 24 assay plates, resulting in 10^4 cells per well, as used for conventional infection experiments. Plates were sealed and placed in the plate stacker that supplied the plate reader. The same procedure was used to screen the same extracts on Mm in a broth. For both assays, the first time points and a time point after 72 h were recorded. Subsequently, we normalized the end point, first with the median of the full assay plate at the first time point and second with the end point of the vehicle controls in the respective assay plate.
For IC50 estimation, we used a rudimentary approach of interpolating the sample concentration between the two normalized residual growth values, which were closest to a value of 0.5.

[3] = tested on: Mycobacterium marinum (Mm) in infection of Dictyostelium discoideum; test: Dd-Mm infection assay: intracellular Mm growth (luminescence); settings: Mm inside Dd, luminescence AUC over 72 h at 25 °C; 6-concentration curve, top 100 μM, 1:3 steps; IC50 interpolated
Procedure: as §1, §2, §3, §4, §5

[4] = tested on: Staphylococcus aureus (Sa) Newman strain; test: MIC determination in Mueller-Hinton broth (CLSI) on Sa; settings: for MIC: Staphylococcus aureus, NEWMAN, read-out: MIC on Sa
Procedure: MICs were determined in Mueller–Hinton (MH) broth according to CLSI guidelines and were repeated at least on three different occasions.
The Newman strain ofS. aureus and the UCBPP-PA14 strain ofP. aeruginosa were used in this study.

[5] = Mm in 7H9 broth, luminescence at 32 °C, IC50 interpolated

CO[C@H]1/C=C/O[C@@]2(C)Oc3c(C)c(O)c4c(c3C2=O)C2=NC3(CCN(CC(C)C)CC3)NC2=C(NC(=O)/C(C)=C\C=C\[C@H](C)[C@H](O)[C@@H](C)[C@@H](O)[C@@H](C)[C@H](OC(C)=O)[C@@H]1C)C4=O [rifabutin, reference compound]
IC50 on Dd in infection [1]: not active
IC50 ([2]; Mycobacterium marinum): 0.03 µM
IC50 [3]: 0.2 µM

CC(=O)c1cc(Cl)c(O)cc1O [Compound 16, 5-Chloro-2,4-dihydroxyacetophenone]
IC50 ([1]; Dictyostelium discoideum): 22.2 µM
IC50 on Mm in broth [2, 5]: not active
IC50 [3]: 22.2 µM
MIC on Sa ([4]; Mueller-Hinton broth, CLSI): not active

CC(=O)c1c(O)cc(O)cc1CCCCCCc1ccccc1 [Compound 4, Knemolone C]
IC50 ([1]; Dictyostelium discoideum): 22.2 µM
IC50 on Mm in broth [2, 5]: not active
IC50 [3]: 22.2 µM
MIC on Sa ([4]; Mueller-Hinton broth, CLSI): 4 μg·mL^–1
MIC ([4]; Mueller-Hinton broth, CLSI): 4 µg/mL (≈ 12.8 µM)

CC(=O)c1c(O)c(Cl)c(O)c(Cl)c1CCCCCCc1ccccc1 [Compound 29, 1-(3,5-Dichloro-2,4-dihydroxy-6-(6-phenylhexyl)phenyl)ethan-1-one]
IC50 ([1]; Dictyostelium discoideum): 7.41 µM
IC50 on Mm in broth [2, 5]: not active
IC50 [3]: 2.47 µM
MIC ([4]; Mueller-Hinton broth, CLSI): 4 to 8 µg/mL (≈ 10.5 to 21 µM)

5-Bromo-2,4-dihydroxychalcone [Compound 25]
IC50 [1]: 0.82 µM
IC50 [2, 5]: 66.7 µM
IC50 [3]: 0.82 µM
MIC on Sa ([4]; Mueller-Hinton broth, CLSI): not active

CCCCCCCCCCCc1cccc(O)c1C(=O)O [Compound 11, Anagigantic acid]
IC50 ([1]; Dictyostelium discoideum): 2.47 µM
IC50 on Mm in broth [2, 5]: Not active
IC50 [3]: 2.47 µM
MIC ([4]; Mueller-Hinton broth, CLSI): 8 µg/mL (≈ 27.4 µM)

O=C(O)c1c(O)cccc1CCCCCCCCc1ccc2c(c1)OCO2 [Compound 9, Kneglobularic acid B]
IC50 ([1]; Dictyostelium discoideum): 22.2 µM
IC50 on Mm in broth [2, 5]: Not active
IC50 [3]: 7.41 µM
MIC ([4]; Mueller-Hinton broth, CLSI): 8 µg/mL (≈ 21.6 µM)

CCCCCCCCCc1cccc(O)c1C(=O)O [Compound 8, Khookerianic acid A]
IC50 ([1]; Dictyostelium discoideum): 2.47 µM
IC50 on Mm in broth [2, 5]: not active
IC50 [3]: 2.47 µM
MIC ([4]; Mueller-Hinton broth, CLSI): 8 µg/mL (≈ 30.3 µM)

O=C(O)c1c(O)cccc1CCCCCCCCc1ccccc1 [Compound 10, Khookerianic acid C/Kneglobularic acid A]
IC50 ([1]; Dictyostelium discoideum): 2.47 µM
IC50 on Mm in broth [2, 5]: Not active
IC50 [3]: 2.47 µM
MIC ([4]; Mueller-Hinton broth, CLSI): 8 µg/mL (≈ 24.5 µM)

CC(=O)c1cc(Cl)c(O)c(Cl)c1O [Compound 17, 3,5-Dichloro-2,4-dihydroxyacetophenone]
IC50 ([1]; Dictyostelium discoideum): 66.7 µM
IC50 on Mm in broth [2, 5]: not active
IC50 [3]: 66.7 µM
MIC on Sa ([4]; Mueller-Hinton broth, CLSI): not active

2,4-Dihydroxychalcone [Compound 14]
IC50 [1]: 7.41 µM
IC50 [2, 5]: 66.7 µM
IC50 [3]: 2.47 µM
MIC on Sa ([4]; Mueller-Hinton broth, CLSI): 32 mg·L–1

CC(=O)c1cc(Br)c(O)c(Br)c1O [Compound 20, 3,5-Dibromo-2,4-dihydroxyacetophenone]
IC50 ([1]; Dictyostelium discoideum): 66.7 µM
IC50 on Mm in broth [2, 5]: not active
IC50 [3]: 66.7 µM
MIC on Sa ([4]; Mueller-Hinton broth, CLSI): not active

CC(=O)c1cc(Br)c(O)cc1O [Compound 19, 5-Bromo-2,4-dihydroxyacetophenone]
IC50 ([1]; Dictyostelium discoideum): 22.2 µM
IC50 on Mm in broth [2, 5]: not active
IC50 [3]: 66.7 µM
MIC on Sa ([4]; Mueller-Hinton broth, CLSI): not active

CC(=O)c1ccc(O)cc1O [Compound 13, 2,4-Dihydroxyacetophenone]
IC50 on Dd in infection [1]: not active
IC50 on Mm in broth [2, 5]: not active
IC50 [3]: 66.7 µM
MIC on Sa ([4]; Mueller-Hinton broth, CLSI): not active

CCCCCCCCCc1cc(O)cc(O)c1C(C)=O [Compound 5, Knemolone D]
IC50 ([1]; Dictyostelium discoideum): 22.2 µM
IC50 on Mm in broth [2, 5]: Not active
IC50 on Mm in infection [3]: Not active
MIC ([4]; Mueller-Hinton broth, CLSI): 2 µg/mL (≈ 7.18 µM)

CC(=O)c1ccc(O)c(Br)c1O [Compound 18, 3-Bromo-2,4-dihydroxyacetophenone]
IC50 ([1]; Dictyostelium discoideum): 66.7 µM
IC50 on Mm in broth [2, 5]: not active
IC50 [3]: 66.7 µM
MIC on Sa ([4]; Mueller-Hinton broth, CLSI): not active

3-Bromo-2,4-dihydroxychalcone [Compound 24]
IC50 [1]: 2.47 µM
IC50 on Mm in broth [2, 5]: not active
IC50 [3]: 2.47 µM
MIC on Sa ([4]; Mueller-Hinton broth, CLSI): 64 mg·L–1

O=C(O)c1c(O)cccc1CCCCCCc1ccc2c(c1)OCO2 [Compound 6, Knemolic acid B]
IC50 ([1]; Dictyostelium discoideum): 7.41 µM
IC50 on Mm in broth [2, 5]: Not active
IC50 [3]: 7.41 µM
MIC ([4]; Mueller-Hinton broth, CLSI): 8 µg/mL (≈ 23.4 µM)

CC(=O)c1ccc(O)c(Cl)c1O [Compound 15, 3-Chloro-2,4-dihydroxyacetophenone]
IC50 ([1]; Dictyostelium discoideum): 22.2 µM
IC50 on Mm in broth [2, 5]: not active
IC50 [3]: 22.2 µM
MIC on Sa ([4]; Mueller-Hinton broth, CLSI): not active

CN[C@H](CC(C)C)C(=O)N[C@H]1C(=O)N[C@@H](CC(N)=O)C(=O)N[C@H]2C(=O)N[C@H]3C(=O)N[C@H](C(=O)N[C@H](C(=O)O)c4cc(O)cc(O)c4-c4cc3ccc4O)[C@H](O)c3ccc(c(Cl)c3)Oc3cc2cc(c3O[C@@H]2O[C@H](CO)[C@@H](O)[C@H](O)[C@H]2O[C@H]2C[C@](C)(N)[C@H](O)[C@H](C)O2)Oc2ccc(cc2Cl)[C@H]1O [vancomycin, reference compound]
MIC [4]: 1 µg/mL (≈ 0.69 µM)
